From US10722501B2 (BAYER AKTIENGESELLSCHAFT, priority 2016, dated 2020)

target: T1, recombinant full-length human prolyl endopeptidase (PREP) (Homo sapiens, UniProt P48147); experiment: Biochemical human prolyl endopeptidase (PREP) assay with fluorescently labelled substrate; details: substrate Z-Gly-Pro-AMC 50 μM, 32° C., 60 min; some as mean values from multiple independent determinations
T1 construct: To recombinant full-length human prolyl endopeptidase (PREP, R&D-Systems, 4308-SE); purchased R&D-Systems 4308-SE
T1 sequence (P48147 1-710): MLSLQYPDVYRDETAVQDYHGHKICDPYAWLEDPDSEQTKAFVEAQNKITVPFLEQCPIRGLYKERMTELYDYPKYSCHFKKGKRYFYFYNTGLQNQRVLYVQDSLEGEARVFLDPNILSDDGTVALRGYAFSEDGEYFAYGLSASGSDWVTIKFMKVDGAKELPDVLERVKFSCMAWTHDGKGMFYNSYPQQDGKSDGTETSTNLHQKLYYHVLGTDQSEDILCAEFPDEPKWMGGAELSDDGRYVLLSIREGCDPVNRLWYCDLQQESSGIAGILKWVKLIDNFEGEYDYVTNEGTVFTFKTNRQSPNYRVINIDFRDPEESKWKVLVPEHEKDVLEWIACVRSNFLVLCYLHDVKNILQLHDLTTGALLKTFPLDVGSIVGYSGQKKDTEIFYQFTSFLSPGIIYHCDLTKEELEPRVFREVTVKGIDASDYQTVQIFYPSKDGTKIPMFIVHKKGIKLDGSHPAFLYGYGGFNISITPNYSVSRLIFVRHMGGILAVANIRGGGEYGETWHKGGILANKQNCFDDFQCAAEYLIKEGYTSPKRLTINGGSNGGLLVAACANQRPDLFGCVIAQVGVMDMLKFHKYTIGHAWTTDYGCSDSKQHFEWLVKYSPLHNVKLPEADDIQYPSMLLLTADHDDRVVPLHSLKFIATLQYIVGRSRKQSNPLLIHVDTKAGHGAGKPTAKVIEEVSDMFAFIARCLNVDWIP
Outline: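 Initial rates of fluorescence increase from 50 μM Z-Gly-Pro-AMC cleavage (ex 360/em 465 nm, 60 min, 32° C) give percent PREP activity versus no-compound control, and IC50 is interpolated. Enzyme used at 0.4 nM (final, example) in Tris pH 7.5 with EDTA, GSH, BSA and Brij-35; compounds span 1 nM to 30 μM.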

| Structure (SMILES) | IC50 [nM] |
| --- | --- |
| O=C(C1CCCc2nn(Cc3cccc(Cl)c3)c(=O)n21)N1CCC(F)(F)C1 (racemic) [Example 44, (5RS)-2-(3-Chlorobenzyl)-5-[(3,3-difluoropyrrolidin-1-yl)carbonyl]-5,6,7,8-tetrahydro[1,2,4]triazolo[4,3-a]pyridin-3(2H)-one] | 2.1 |
| Cc1ccc(Cn2nc3n(c2=O)C(C(=O)N2CCCC2)CC(C)C3)cc1 (racemic) [Example 224, (5RS,7RS)-7-Methyl-2-(4-methylbenzyl)-5-(pyrrolidin-1-ylcarbonyl)-5,6,7,8-tetrahydro[1,2,4]triazolo[4,3-a]pyridin-3(2H)-one] | 0.56 |
| CC1CCC(C(=O)N2CC(F)C2)n2c1nn(Cc1ccc(F)cc1F)c2=O (racemic) [Example 329, (5RS,8RS)-2-(2,4-Difluorobenzyl)-5-[(3-fluoroazetidin-1-yl)carbonyl]-8-methyl-5,6,7,8-tetrahydro[1,2,4]triazolo[4,3-a]pyridin-3(2H)-one] | 4.3 |
| O=C(C1CCc2nn(Cc3ccnc(C(F)(F)F)c3F)c(=O)n21)N1CCC(F)(F)C1 (racemic) [Example 181, (5RS)-5-[(3,3-Difluoropyrrolidin-1-yl)carbonyl]-2-{[3-fluoro-2-(trifluoromethyl)pyridin-4-yl]methyl}-2,5,6,7-tetrahydro-3H-pyrrolo[2,1-c][1,2,4]triazol-3-one] | 24.8 |
| CC(c1ccc(Cl)cc1)n1nc2n(c1=O)C(C(=O)N1CCCC1)CCC2 (single isomer, unassigned) [Example 5, (5RS)-2-[(1 RS)-1-(4-Chlorophenyl)ethyl]-5-(pyrrolidin-1-ylcarbonyl)-5,6,7,8-tetrahydro[1,2,4]triazolo[4,3-a]pyridin-3(2H)-one] | 8 |
| O=C([C@@H]1CCCc2nn(Cc3ccc(Br)cc3)c(=O)n21)N1CC[C@H](F)C1 [Example 212, (5S)-2-(4-Bromobenzyl)-5-{[(3S)-3-fluoropyrrolidin-1-yl]carbonyl}-5,6,7,8-tetrahydro[1,2,4]triazolo[4,3-a]pyridin-3(2H)-one] | 0.041 |
| O=C(C1CC(C(F)(F)F)Cc2nn(Cc3ccnc(C(F)(F)F)c3F)c(=O)n21)N1CC[C@H](F)C1 (single isomer, unassigned) [Example 258] | 91.5 |
| COc1ccc(Cn2nc3n(c2=O)[C@H](C(=O)N2CCC(F)(F)C2)CCC3)nc1 [Example 381, (5S)-5-[(3,3-Difluoropyrrolidin-1-yl)carbonyl]-2-[(5-methoxypyridin-2-yl)methyl]-5,6,7,8-tetrahydro[1,2,4]triazolo[4,3-a]pyridin-3(2H)-one] | 5.5 |
| Cc1ccc(Cn2nc3n(c2=O)[C@H](C(=O)N2CCC[C@H]2C#N)CCC3)cc1 [Example 109, (2S)-1-{[(5S)-2-(4-Methylbenzyl)-3-oxo-2,3,5,6,7,8-hexahydro[1,2,4]triazolo[4,3-a]pyridin-5-yl]carbonyl}pyrrolidine-2-carbonitrile] | 0.21 |
| O=C(C1CCC(C(F)(F)F)c2nn(Cc3ncccc3F)c(=O)n21)N1C[C@@H](F)[C@@H](F)C1 (mixture of isomers) [Example 274, (5RS,8RS)-5-{[(3R,4S)-3,4-Difluoropyrrolidin-1-yl]carbonyl}-2-[(3-fluoropyridin-2-yl)methyl]-8-(trifluoromethyl)-5,6,7,8-tetrahydro[1,2,4]triazolo[4,3-a]pyridin-3(2H)-one] | 5.9 |
| O=C(C1CC(C(F)(F)F)Cc2nn(Cc3ccc(Cl)nc3)c(=O)n21)N1CC[C@@H](F)C1 (single isomer, unassigned) [Example 247] | 910 |
| Cc1ccc(Cn2nc3n(c2=O)C(C(=O)N2CCC4(C2)CC4(F)F)CCC3)cc1 (mixture of isomers) [Example 128, (5S)-{[(3RS)-1,1-Difluoro-5-azaspiro[2.4]hept-5-yl]carbonyl}-2-(4-methylbenzyl)-5,6,7,8-tetrahydro[1,2,4]triazolo[4,3-a]pyridin-3(2H)-one] | 46 |
| O=C(C1CCCc2nn(Cc3ccc(C(F)(F)F)cn3)c(=O)n21)N1CCCC1 (racemic) [Example 23, (5RS)-5-(Pyrrolidin-1-ylcarbonyl)-2-{[5-(trifluoromethyl)pyridin-2-yl]methyl}-5,6,7,8-tetrahydro[1,2,4]triazolo[4,3-a]pyridin-3(2H)-one] | 4.95 |
| O=C(C1C(C(F)(F)F)CCc2nn(Cc3ncc(Cl)cc3F)c(=O)n21)N1CCC(F)(F)C1 (single isomer, unassigned) [Example 297, (5RS,6RS)-2-[(5-Chloro-3-fluoropyridin-2-yl)methyl]-5-[(3,3-difluoropyrrolidin-1-yl)carbonyl]-6-(trifluoromethyl)-5,6,7,8-tetrahydro[1,2,4]triazolo[4,3-a]pyridin-3(2H)-one] | 115 |
| O=C(C1CCCc2nn(Cc3ccc4c(c3)CCCC4)c(=O)n21)N1CCC(F)(F)C1 (racemic) [Example 87, (5RS)-5-[(3,3-Difluoropyrrolidin-1-yl)carbonyl]-2-(5,6,7,8-tetrahydronaphthalen-2-ylmethyl)-5,6,7,8-tetrahydro[1,2,4]triazolo[4,3-a]pyridin-3(2H)-one] | 1.17 |
| O=C(C1CCc2nn(Cc3ccnc(C(F)(F)F)c3F)c(=O)n21)N1CC[C@H](F)C1 (single isomer, unassigned) [Example 180] | 3.2 |
| Cc1ccc(Cn2nc3n(c2=O)[C@H](C(=O)N2CCCC2)CCC3)cc1 [Example 26, (5S)-2-(4-Methylbenzyl)-5-(pyrrolidin-1-ylcarbonyl)-5,6,7,8-tetrahydro[1,2,4]triazolo[4,3-a]pyridin-3(2H)-one] | 0.73 |
| O=C([C@@H]1CCCc2nn(Cc3ncc(F)cc3F)c(=O)n21)N1CCC(F)(F)C1 [Example 412, (5S)-2-[(3,5-Difluoropyridin-2-yl)methyl]-5-[(3,3-difluoropyrrolidin-1-yl)carbonyl]-5,6,7,8-tetrahydro[1,2,4]triazolo[4,3-a]pyridin-3(2H)-one] | 3 |
| O=C([C@@H]1CCCc2nn(Cc3nccc(C(F)(F)F)c3Cl)c(=O)n21)N1CCCC1 [Example 533, (5S)-2-{[3-Chloro-4-(trifluoromethyl)pyridin-2-yl]methyl}-5-(pyrrolidin-1-ylcarbonyl)-5,6,7,8-tetrahydro[1,2,4]triazolo[4,3-a]pyridin-3(2H)-one] | 0.44 |
| O=C([C@@H]1CCCc2nn(CC3(c4ccc(F)cc4)CC3)c(=O)n21)N1CC(F)C1 [Example 351, (5S)-5-[(3-Fluoroazetidin-1-yl)carbonyl]-2-{[1-(4-fluorophenyl)cyclopropyl]methyl}-5,6,7,8-tetrahydro[1,2,4]triazolo[4,3-a]pyridin-3(2H)-one] | 1.6 |
| O=C([C@@H]1CCCc2nn(Cc3ccc(C(F)(F)F)nc3)c(=O)n21)N1CC[C@H](F)C1 [Example 427, (5S)-5-{[(3S)-3-Fluoropyrrolidin-1-yl]carbonyl}-2-{[6-(trifluoromethyl)pyridin-3-yl]methyl}-5,6,7,8-tetrahydro[1,2,4]triazolo[4,3-a]pyridin-3(2H)-one] | 1.1 |
| O=C([C@@H]1CCC(F)(F)c2nn(Cc3ncc(C(F)(F)F)cc3Cl)c(=O)n21)N1CC[C@H](F)C1 [Example 589, (5S)-2-{[3-Chloro-5-(trifluoromethyl)pyridin-2-yl]methyl}-8,8-difluoro-5-{[(3S)-3-fluoropyrrolidin-1-yl]carbonyl}-5,6,7,8-tetrahydro[1,2,4]triazolo[4,3-a]pyridin-3(2H)-one] | 0.35 |
| O=C(C1CCC(C(F)(F)F)c2nn(Cc3ccc(C(F)(F)F)nc3)c(=O)n21)N1CC[C@H](F)C1 (single isomer, unassigned) [Example 272] | 0.695 |
| O=C(C1CCCc2nn(Cc3cccc(C(F)(F)F)c3)c(=O)n21)N1CC(O)C1 (single isomer, unassigned) [Example 98, (5RS)-5-[(3-Hydroxyazetidin-1-yl)carbonyl]-2-[3-(trifluoromethyl)benzyl]-5,6,7,8-tetrahydro[1,2,4]triazolo[4,3-a]pyridin-3(2H)-one] | 257 |
| O=C(C1C(C(F)(F)F)CCc2nn(Cc3ncc(Cl)cc3F)c(=O)n21)N1CCC(F)(F)C1 (racemic) [Example 296, (5RS,6RS)-2-[(5-Chloro-3-fluoropyridin-2-yl)methyl]-5-[(3,3-difluoropyrrolidin-1-yl)carbonyl]-6-(trifluoromethyl)-5,6,7,8-tetrahydro[1,2,4]triazolo[4,3-a]pyridin-3(2H)-one] | 180 |
| O=C(C1C(C(F)(F)F)CCc2nn(Cc3ccc(Cl)cn3)c(=O)n21)N1CC(F)C1 (racemic) [Example 310, (5RS,6RS)-2-[(5-Chloropyridin-2-yl)methyl]-5-[(3-fluoroazetidin-1-yl)carbonyl]-6-(trifluoromethyl)-5,6,7,8-tetrahydro[1,2,4]triazolo[4,3-a]pyridin-3(2H)-one] | 15 |
